# Measured values published in a melting point compilation (Tetko et al.).
row,melting point,SMILES
1,61 to 63 °C,NCc1cn(-c2ccccc2)nc1-c1ccccc1
2,66 to 68 °C,COc1ccc(Br)cc1NCc1cccnc1
3,99 to 101 °C,C#Cc1cnc2ccccc2n1
4,286 to 288 °C,O=C(O)c1sc2cc(Br)ccc2c1Cl
5,174 to 176 °C,CC(C)CNS(=O)(=O)c1ccc(Br)c(C(=O)O)c1
6,70 to 72 °C,CN(C)C(=O)CC(=O)O
7,76 to 78 °C,O=C(O)CCn1cccn1
8,156 to 158 °C,Cn1cc(C=O)c(-c2ccc(C#N)cc2)n1
9,75 to 77 °C,Cc1c(F)cc(C#N)cc1[N+](=O)[O-]
10,143 to 145 °C,COc1ccc(Br)cc1C(N)=S
11,181 to 183 °C,O=C(O)c1csc(-c2ccco2)n1
12,209 to 211 °C,COC(=O)c1c[nH]c(=O)c(N)c1
13,210 to 212 °C,COC(=O)c1ccc(C(=O)O)cn1
14,264 to 266 °C,Cn1ncc2c(N)ncnc21
15,126 to 128 °C,O=C(O)C1CSc2ccccc2O1 (stereo not given)
16,136 to 138 °C,N#CCC(=O)Nc1ccccc1Br
17,132 to 136 °C,CCCC1NC(=O)NC1=O (stereo not given)
18,64 to 66 °C,CC(C)c1cc(N)no1
19,206 to 208 °C,N#Cc1ccccc1S(=O)(=O)N1CCN(C(=O)CCl)CC1
20,176 to 178 °C,N#Cc1c(NC(=O)CCl)sc2c1CCC2
21,261 to 263 °C,N#Cc1cccc(CNc2ccc3[nH]c(=O)[nH]c3c2)c1
22,119 to 121 °C,Nc1nc(-c2ccccc2Cl)ns1
23,97 to 99 °C,CC(C)n1cnnc1-c1ccccc1N
24,55 to 57 °C,CCC(C)NC(=O)CN1CCNCC1 (stereo not given)

row,melting point,SMILES
1,171 to 173 °C,CC(C(=O)c1ccc(Br)cc1)N1C(=O)CCC1=O (stereo not given)
2,148 to 150 °C,CSCC[C@H](N)C(=O)NO
3,149 to 151 °C,CC(=O)c1ccc(S(=O)(=O)NCc2ccc(F)cc2)cc1
4,20 to 22 °C,NCc1nnc2n1CCC2
5,100 to 102 °C,COC(=O)c1ccc(S(=O)(=O)Cl)c([N+](=O)[O-])c1
6,219 to 221 °C,Nc1ccc(Cc2nc3ccccc3s2)cc1
7,209 to 211 °C,Cc1ccc2c(C)cc(=O)[nH]c2c1
8,116 to 118 °C,CC1CN(c2ccc(N)cc2F)CC(C)O1 (stereo not given)
9,152 to 154 °C,O=C1CC(c2ccc(Cl)cc2)CC(=O)N1
10,82 to 84 °C,COCC(=O)Nc1cccc(N)c1
11,95 to 97 °C,CN(c1ccccc1)c1ccc(C=O)cc1[N+](=O)[O-]
12,103 to 105 °C,Cn1cc(C(=O)c2cccc(F)c2)cn1
13,167 to 169 °C,Cc1c(Cl)cc(C(=O)O)cc1S(=O)(=O)Cl
14,163 to 165 °C,CC(Cl)C(=O)NC1CCCC(C)C1C (stereo not given)
15,38 to 40 °C,O=C1CCCC1Cc1ccccc1[N+](=O)[O-] (stereo not given)
16,213 to 218 °C,O=C(CCl)NCc1ccc(-c2ccc(Cl)cc2)o1
17,86 to 88 °C,CC(C(=O)O)S(C)(=O)=O (stereo not given)
18,129 to 131 °C,NS(=O)(=O)NCc1cccnc1
19,205 to 207 °C,CC(C)(C)c1nccc(=O)[nH]1
20,106 to 108 °C,O=C(O)COc1ccc(Br)cc1F
21,118 to 120 °C,O=C(CCl)NCc1ccccc1CS(=O)(=O)N1CCOCC1
22,116 to 118 °C,O=C(O)c1ccccc1Nc1ccc(SC(F)F)cc1
23,61 to 63 °C,O=Cc1ccc(OCCBr)c(Cl)c1
24,109 to 111 °C,CCOC(=O)c1cnn(CCC#N)c1N

row,melting point,SMILES
1,94 to 98 °C,C#CCOc1ccc(Br)cc1C=O
2,188 to 190 °C,O=C(O)c1cccnc1N1CCN(Cc2cccc(Cl)c2)CC1
3,223 to 225 °C,COC(=O)c1c(C)n(C)c2ccc(O)cc12
4,61 to 63 °C,O=S(=O)(Cl)c1cc(Cl)c(Br)s1
5,66 to 68 °C,Nc1nc(C(F)(F)F)cs1
6,167 to 169 °C,O=C(O)c1cc([N+](=O)[O-])ccc1Oc1ccccc1
7,65 to 67 °C,CN(C)C(=O)Sc1cnn(-c2ccccc2F)c1
8,110 to 112 °C,Cc1ccc(-c2csc(NCCCC(=O)O)n2)s1
9,76 to 78 °C,N#CCN1CCC(O)CC1
10,221 to 223 °C,NC(C(=O)O)c1cccc(Br)c1 (stereo not given)
11,159 to 161 °C,CC(C)Cc1ccc(C=CC(=O)O)cc1
12,197 to 199 °C,O=C(O)c1cnc2sc(Cc3ccccc3)cn2c1=O
13,140 to 142 °C,CCOc1cc(C#N)cc(Br)c1O
14,50 to 52 °C,NCc1ccc(N2CCSCC2)cc1
15,126 to 128 °C,O=C(O)CCC(=O)c1ccc(S(=O)(=O)Cl)cc1
16,67 to 69 °C,CCOC(=O)c1c(N=C=S)sc(C)c1C
17,178 to 180 °C,O=C(CCl)Nc1c(Cl)cccc1Cl
18,138 to 140 °C,Nc1ccc(C(=O)N2CCC(CO)CC2)cc1
19,206 to 208 °C,O=C1c2ccccc2C(=O)N1CC(O)CN1C(=O)c2ccccc2C1=O
20,125 to 127 °C,O=c1ccc(C(F)(F)F)n[nH]1
21,110 to 112 °C,O=S(=O)(c1ccc2c(c1)CCCC2)N1CCNCC1
22,306 to 308 °C,O=c1[nH]c(S)nc2cc(Cl)ccc12
23,119 to 121 °C,O=C(O)c1nn(-c2ccccc2)cc1CCCO
24,72 to 74 °C,CC(=O)c1ccc(OC2CCOCC2)cc1

row,melting point,SMILES
1,81 to 83 °C,CON(C)S(=O)(=O)c1ccc(Br)cc1
2,63 to 65 °C,CC(C)c1cccc(C(=O)O)n1
3,165 to 167 °C,N#CCc1nc(-c2ccccc2)n[nH]1
4,93 to 95 °C,CCOC(=O)c1ccc(Br)c(S(=O)(=O)Cl)c1
5,41 to 43 °C,CC1CNc2ccccc2S1 (stereo not given)
6,43 to 47 °C,COCCOc1ccc(C(F)(F)F)cc1N
7,180 to 182 °C,CC(=O)c1ccc(S(=O)(=O)NC(CC(N)=O)C(=O)O)cc1 (stereo not given)
8,205 to 207 °C,Cc1ccc(-n2nc(C(=O)O)cc2-c2ccc(-c3ccccc3)cc2)cc1
9,219 to 221 °C,O=C(O)Cn1ncc2ccc([N+](=O)[O-])cc21
10,100 to 102 °C,CSc1noc(N)n1
11,47 to 49 °C,Clc1cncc(OCc2ccccc2)n1
12,112 to 114 °C,CC(=O)N(c1nc(C=O)cs1)C1CC1
13,< 17 °C,CC1N=C(S)N(Cc2ccccc2)C1=O (stereo not given)
14,119 to 121 °C,COC(=O)c1ccc(S(=O)(=O)Cl)cn1
15,69 to 71 °C,O=Cc1ccc(-n2ccnc2)c(F)c1
16,115 to 117 °C,O=C(O)C1CC1c1cccc(Br)c1 (stereo not given)
17,127 to 129 °C,O=C(NC(Cc1c[nH]cn1)C(=O)O)C1CCCCC1 (stereo not given)
18,95 to 99 °C,CCCCNC(=O)CC(N)=NO
19,123 to 125 °C,Sc1nnc(NCC2CCCO2)s1 (stereo not given)
20,155 to 157 °C,Cc1ccc(C)n1-c1cn[nH]c1
21,184 to 186 °C,Cn1c(CO)nnc1-c1ccccc1
22,186 to 188 °C,Cc1nn(C)c(C)c1O
23,52 to 55 °C,COC(=O)c1nnc2c(Cl)cccn12
24,154 to 156 °C,COC(=O)NC(C)(C)C(=O)O

row,melting point,SMILES
1,63 to 65 °C,Cc1ccc(C(=O)C(=O)c2ccccc2)cc1C
2,175 to 177 °C,O=C(c1cc(Cl)nc2ccccc12)N1CCOCC1
3,120 to 122 °C,O=C(CCl)Nc1cc(C2CC2)nn1-c1ccccc1
4,145 to 147 °C,COc1ccccc1C(CN)NC(=O)OC(C)(C)C (stereo not given)
5,267 to 269 °C,CC(=O)Nc1nnc(S)s1
6,139 to 141 °C,COC(=O)NC1CCC(O)CC1 (stereo not given)
7,188 to 190 °C,CC(C)(C)OC(=O)NC1CCN(c2ccc(C#N)cn2)CC1
8,146 to 148 °C,Oc1ccc(-c2cscn2)cc1
9,49 to 51 °C,CCC(CC)(CN)NC(=O)OC(C)(C)C
10,92 to 94 °C,Sc1nnc(CCc2ccccc2)o1
11,150 to 152 °C,Cc1cccc(NC(=O)C(Br)C(C)C)c1C (stereo not given)
12,153 to 155 °C,O=C(O)CCc1nc(-c2ccsc2)no1
13,90 to 92 °C,O=C(CCl)NCCc1nc2ccccc2s1
14,137 to 139 °C,O=S(=O)(NC1CCCNC1)c1cccc(F)c1 (stereo not given)
15,262 to 264 °C,CC(=O)N1CCN(c2ccc(C(=O)O)cc2[N+](=O)[O-])CC1
16,59 to 61 °C,CC(C(=O)O)c1cccc(F)c1 (stereo not given)
17,199 to 201 °C,NS(=O)(=O)c1cncc(Br)c1
18,124 to 126 °C,Fc1ccc(OCc2ccc3ccccc3n2)c(Br)c1
19,110 to 112 °C,CC(C)CS(=O)(=O)CCC(=O)O
20,130 to 132 °C,O=C1CCCc2nc(-c3ccccc3Br)sc21
21,144 to 146 °C,COC(=O)c1cc2c(OC(F)F)cccc2[nH]1
22,170 to 172 °C,O=C(O)c1c[nH]c2cccc([N+](=O)[O-])c12
23,179 to 181 °C,O=C(O)c1ccc(Sc2ccccn2)cc1
24,313 to 315 °C,NC(=O)Cn1c(S)nnc1-c1ccco1

row,melting point,SMILES
1,144 to 146 °C,CC1(c2ccc(Br)cc2)CC(=O)NC1=O (stereo not given)
2,81 to 83 °C,Cc1ccccc1C(N)=NO
3,176 to 178 °C,CN1CCN(S(=O)(=O)c2ccc3c(c2)CCN3)CC1
4,345 to 347 °C,O=C(O)c1ccc(Nc2ncnc3ccccc23)cc1
5,51 to 53 °C,Clc1c(Br)ccc2ccccc12
6,142 to 144 °C,Cc1ccc(Cc2cnc(N)s2)cc1
7,89 to 91 °C,CS(=O)(=O)CC1(CC(=O)O)CC1
8,284 to 286 °C,N#CCc1nc2scc(C3CC3)c2c(=O)[nH]1
9,243 to 245 °C,COc1ccccc1-c1nnc(S)o1
10,70 to 72 °C,N#Cc1ccccc1OCc1ccccc1
11,104 to 110 °C,O=Cc1ccc(Br)nc1
12,97 to 99 °C,O=C(c1ccc(S(=O)(=O)Cl)cc1)N1CCCCC1
13,55 to 59 °C,N#Cc1ccc(OCCBr)cc1
14,250 to 252 °C,Cc1ccc(C(=O)Nc2nc3ccc(N)cc3s2)s1
15,57 to 59 °C,CNC(CO)c1ccc(OC)cc1 (stereo not given)
16,54 to 58 °C,CCCc1cc(N)on1
17,160 to 162 °C,Nc1ccc(C(=O)O)c(I)c1
18,196 to 198 °C,O=C(O)c1cccc(CN2CCCC2)c1
19,101 to 103 °C,Nc1cc(F)c(-n2cccn2)cc1N
20,168 to 170 °C,CC1(C2CC2)NC(=O)NC1=O (stereo not given)
21,54 to 58 °C,O=[N+]([O-])c1cnc(Cl)c(Br)c1
22,122 to 124 °C,N#CCc1ccc(NC(=O)CCl)cc1
23,101 to 104 °C,CC(=O)C(Cl)C(=O)Nc1ccccc1 (stereo not given)

row,SMILES,melting point
1,Cn1cc(C#N)cc1C(=O)C(Cl)(Cl)Cl,146 to 148 °C
2,COc1ccc(Cl)cc1CBr,77 to 79 °C
